Key:
Assay in all cases: Yeast 6x EcRE-lacZ β-galactosidase transactivation assay
[1] = test system: Aa ΔA/B EcR + Aa ΔA/B USP; assay type: cell-based, Aedes aegypti; conditions: RH 5992 10 μM, 4 hours, DMSO control 0.187
Experimental: (§1) Briefly, yeast cells are cultured in 5 mL of YPD liquid medium overnight at 30° C. The cell culture was diluted 1:20 in YPD media and further grown until cell density reached an O.D of 0.6. at OD600. The cells were pelleted by centrifugation and washed with 10 mL of TE+0.1M lithium acetate. Cells are then resuspended in 10 mL TE+0.1M lithium acetate and incubated at 30° C. for 1 hour. Cells are collected and resuspended in 0.5 mL of TE+ 0.1M lithium acetate. Aliquots of cells (50 μL), were incubated for 15 minutes at 30° C. with 1–2 μg plasmid DNA in the presence of 5 μg of denatured salmon sperm DNA as DNA carrier. In the case of co-transformation, the indicated plasmids were added simultaneously. 50% polyethyleneglycol of molecular weight 4000, diluted in TE, was added to a final concentration of 35%. DMSO was added to the transformation solution simultaneously to a final concentration 3%. The samples were mixed well by vortexing and incubated for an additional 30 minutes at 30° C. The cell mixture is then heated for 15 minutes at 42° C. Cells were then collected and plated onto appropriate yeast selective media. Transformants of 4 plasmids are selected on the complete media without tryptophan, uracil, leucine and histidine.
(§2) The yeast cells grown overnight in selective liquid media at 30° C. were diluted in prewarmed liquid selective media to 0.1 at OD600 (ODculture). 100 μl of the cell culture was spiked to each well of a.96-well microtiter plate. Ligand (2 μl diluted in DMSO) was added to each well giving a final concentration of DMSO of 2%. As a control, 2 μl of DMSO were also added to additional test wells. The final concentration of the tested compounds in the media is 10 μM. The cells were incubated in the presence of ligand in a shaker at 30° C. After 4 hours of incubation, 100 μl of 2× “Z” Sarcosine-ONPG buffer (120 mM Na2HPO4, 80 mM NaH2PO4, 20 mM KCl, 2 mM MgSO4, 100 mM beta-mercaptoethanol (Sigma), pH 7.0, 0.4% lauroyl sarcosine (Sigma), 4 mg/mL ONPG (Diagnostic Chemicals limited) was added to each well and the plate was further incubated at 37° C. The 2× “Z” Sarcosine-ONPG buffer is freshly prepared or stored at −20° C. prior to use. After incubation at 37° C. for 1 hour. The reaction was stopped by adding 100 μL of quenching solution 0.5 M Na2CO3 and OD405 (ODreaction) and beta-galactosidase activity was measured in a micro plate reader (Biotek) at a wave length of 405–450 nanometers. The effect of copper on enhancement of the transactivation response mediated by the ligands tested was studied by adding CuSO4 to the media to a final concentration of 10 μM.
Using the transformation method described above, yeast were co-transformed with a reporter gene as shown in FIG. 2 and the expression vector encoding the full-length Aedes aegypti ecdysone receptor, Aa EcR (FIG. 7A) in the presence or absence of the Aa EcR heterodimer partner, Aa USP (a or b form, FIGS. 8A and 8B respectively). Transformed cells were incubated with DMSO alone as a control, or with a proprietary ecdysone receptor ligand (Rohm & Haas tebufenozide[RH5992]) at final concentration 10 μM for 4 hours. The samples were then assayed for β-galactosidase activity as described above. […] As the N-terminal portion of the AaEcR receptor is reported to play a role in ligand independent transactivation, an expression vector containing an N-terminal deletion in the Aa EcR was constructed (see FIG. 7B) and assessed in the β-galactosidase assays described above. […] Restoration of ligand dependent transactivation was observed only when the AaΔN EcR, AaUSP (a or b forms) and co-activator GRIP1 were coexpressed. As in the Drosophila system, the data obtained indicate that the efficiency of ligand-dependent transactivation of the ecdysone receptor in mosquito A. aegypti is dependent on the both heterodimer formation of EcR/USP and also upon proper interaction with co-activator GRIP1.

Dm EcR-B1 = target: T1, Dm EcR-B1 (Drosophila melanogaster, UniProt P34021); assay type: cell-based; conditions: RH 5992 10 μM, 4 hours, DMSO control 1.090
T1 construct: ubiquitin (human, 76 aa) (N, cleaved yes); expressed in transfected cells
Experimental: as §1, §2
(§3) Using the transformation method set forth above, yeast were co-transformed with a reporter gene as shown in FIG. 2 and the expression vector encoding the full-length D. melanogaster ecdysone receptor, DmEcR (FIG. 3A) in the presence or absence of the Dm EcR heterodimer partner, DmUSP (FIG. 4A). Transformed cells were incubated with DMSO alone as a control or with a proprietary ecdysone receptor ligand (Rohm & Haas compound RH5992—tebufenozide) at final concentration 10 μM for 4 hours. The samples were then assayed for β-galactosidase activity as described above. […] As the N-terminal portion of the Dm EcR receptor is reported to play a role in ligand independent transactivation, an expression vector containing an N-terminal deletion in the EcR was constructed (see FIG. 3B) and assessed in the β-galactosidase assays described above. […] Restoration of ligand dependent transactivation was observed only when the DmΔN EcR, DmUSP and co-activator GRIP1 were coexpressed. See Table I. The data obtained indicate that the efficiency of ligand-dependent transactivation of the ecdysone receptor requires both heterodimer formation between EcR and USP, and proper interaction with co-activator GRIP1. […]

[2] = target: T2, Dm ΔN EcR + Dm ΔA/B USP + GRIP1 (Drosophila melanogaster, UniProt P34021); assay type: cell-based; conditions: RH 5992 10 μM, 4 hours, DMSO control 0.340
T2 construct: ubiquitin (human, 76 aa) (N, cleaved yes); expressed in transfected cells
Experimental: as §1, §2, §3

Dm EcR + DmUSP = target: T3, Dm EcR + DmUSP (Drosophila melanogaster, UniProt P34021); assay type: cell-based; conditions: RH 5992 10 μM, 4 hours, DMSO control 2.091
T3 construct: ubiquitin (human, 76 aa) (N, cleaved yes); expressed in transfected cells
Experimental: as §1, §2, §3

[3] = target: T4, Dm ΔN EcR + DmUSP + GRIP1 (Drosophila melanogaster, UniProt P34021); assay type: cell-based; conditions: RH 5992 10 μM, 4 hours, DMSO control 0.424
T4 construct: ubiquitin (human, 76 aa) (N, cleaved yes); expressed in transfected cells
Experimental: as §1, §2, §3

Dm ΔN EcR + DmUSP = target: T5, Dm ΔN EcR + DmUSP (Drosophila melanogaster, UniProt P34021); assay type: cell-based; conditions: 4 hours
T5 construct: ubiquitin (human, 76 aa) (N, cleaved yes); expressed in transfected cells
Experimental: as §1, §2, §3

T5 sequence (P34021 221-878 limits assumed, stated change not applied): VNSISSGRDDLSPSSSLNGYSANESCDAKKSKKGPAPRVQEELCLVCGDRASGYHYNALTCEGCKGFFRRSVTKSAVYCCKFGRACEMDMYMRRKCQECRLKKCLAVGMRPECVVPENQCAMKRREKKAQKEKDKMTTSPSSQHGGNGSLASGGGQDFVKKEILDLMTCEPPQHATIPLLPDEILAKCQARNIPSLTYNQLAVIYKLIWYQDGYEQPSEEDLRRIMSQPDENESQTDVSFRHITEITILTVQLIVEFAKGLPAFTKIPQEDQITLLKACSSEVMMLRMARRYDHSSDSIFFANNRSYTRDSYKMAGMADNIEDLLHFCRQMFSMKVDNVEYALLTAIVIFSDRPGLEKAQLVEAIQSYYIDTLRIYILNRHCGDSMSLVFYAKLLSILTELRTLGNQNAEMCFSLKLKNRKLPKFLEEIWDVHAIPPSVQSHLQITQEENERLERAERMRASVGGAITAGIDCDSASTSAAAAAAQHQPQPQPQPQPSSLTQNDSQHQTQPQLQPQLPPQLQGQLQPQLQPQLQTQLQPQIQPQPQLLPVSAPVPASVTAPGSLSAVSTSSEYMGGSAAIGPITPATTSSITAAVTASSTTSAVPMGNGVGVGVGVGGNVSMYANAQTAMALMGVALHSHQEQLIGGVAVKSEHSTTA
T5 sequence (P20153 whole entry partner): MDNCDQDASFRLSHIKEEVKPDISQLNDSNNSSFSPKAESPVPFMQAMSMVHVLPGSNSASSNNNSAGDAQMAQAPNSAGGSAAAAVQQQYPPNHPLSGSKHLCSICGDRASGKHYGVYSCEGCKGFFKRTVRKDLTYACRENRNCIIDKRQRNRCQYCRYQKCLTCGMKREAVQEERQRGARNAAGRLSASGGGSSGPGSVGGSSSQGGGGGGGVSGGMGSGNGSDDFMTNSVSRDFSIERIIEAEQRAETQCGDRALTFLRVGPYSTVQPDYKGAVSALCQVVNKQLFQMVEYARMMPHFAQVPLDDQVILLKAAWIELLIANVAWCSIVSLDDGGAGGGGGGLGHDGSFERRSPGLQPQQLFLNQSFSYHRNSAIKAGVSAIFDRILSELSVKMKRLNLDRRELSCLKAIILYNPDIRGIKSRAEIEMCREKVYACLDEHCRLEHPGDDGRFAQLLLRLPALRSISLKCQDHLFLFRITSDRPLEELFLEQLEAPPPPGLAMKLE
T3 sequence (P34021 whole entry): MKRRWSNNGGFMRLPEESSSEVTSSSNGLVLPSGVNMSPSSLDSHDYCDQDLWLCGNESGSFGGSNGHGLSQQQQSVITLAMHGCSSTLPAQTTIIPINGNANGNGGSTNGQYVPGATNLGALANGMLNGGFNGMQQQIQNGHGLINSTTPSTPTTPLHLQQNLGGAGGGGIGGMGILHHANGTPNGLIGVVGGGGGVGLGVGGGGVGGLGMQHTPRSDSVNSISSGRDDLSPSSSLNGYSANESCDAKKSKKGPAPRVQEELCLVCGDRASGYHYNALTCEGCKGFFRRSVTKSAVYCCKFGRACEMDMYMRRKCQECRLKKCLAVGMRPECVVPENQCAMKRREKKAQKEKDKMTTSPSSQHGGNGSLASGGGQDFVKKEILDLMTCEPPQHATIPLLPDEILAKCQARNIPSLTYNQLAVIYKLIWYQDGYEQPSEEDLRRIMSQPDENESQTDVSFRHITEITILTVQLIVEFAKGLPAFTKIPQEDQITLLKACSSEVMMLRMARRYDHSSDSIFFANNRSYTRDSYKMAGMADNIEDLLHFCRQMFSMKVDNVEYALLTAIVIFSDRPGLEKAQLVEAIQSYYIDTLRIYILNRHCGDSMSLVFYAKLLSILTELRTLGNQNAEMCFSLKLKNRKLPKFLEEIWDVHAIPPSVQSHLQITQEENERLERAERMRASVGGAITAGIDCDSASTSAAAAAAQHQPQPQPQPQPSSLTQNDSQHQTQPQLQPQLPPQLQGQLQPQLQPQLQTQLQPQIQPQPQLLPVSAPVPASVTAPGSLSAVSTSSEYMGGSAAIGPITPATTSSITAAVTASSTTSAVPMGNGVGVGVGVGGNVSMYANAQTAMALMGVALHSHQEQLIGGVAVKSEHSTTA
T3 sequence (P20153 whole entry partner): as the sequence (P20153 whole entry partner) above
T1 sequence (P34021 whole entry): as the sequence (P34021 whole entry) above
T2 sequence (P34021 221-878, stated change not applied): as the sequence (P34021 221-878 limits assumed, stated change not applied) above
T2 sequence (P20153 with tags, fused parts or gaps partner): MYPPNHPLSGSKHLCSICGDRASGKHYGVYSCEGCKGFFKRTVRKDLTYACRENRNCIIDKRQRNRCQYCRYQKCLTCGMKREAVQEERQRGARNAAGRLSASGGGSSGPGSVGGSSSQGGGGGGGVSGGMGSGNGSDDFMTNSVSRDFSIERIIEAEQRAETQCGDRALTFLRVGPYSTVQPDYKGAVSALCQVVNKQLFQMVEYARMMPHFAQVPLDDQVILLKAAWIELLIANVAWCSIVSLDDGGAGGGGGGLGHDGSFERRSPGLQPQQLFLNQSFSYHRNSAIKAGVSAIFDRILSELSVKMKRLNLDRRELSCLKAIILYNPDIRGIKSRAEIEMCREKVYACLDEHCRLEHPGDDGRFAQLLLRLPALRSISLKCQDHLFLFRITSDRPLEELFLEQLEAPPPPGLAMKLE
T4 sequence (P34021 221-878 limits assumed, stated change not applied): as the sequence (P34021 221-878 limits assumed, stated change not applied) above
T4 sequence (P20153 whole entry partner): as the sequence (P20153 whole entry partner) above
T4 sequence (Q61026 322-1121 partner limits assumed): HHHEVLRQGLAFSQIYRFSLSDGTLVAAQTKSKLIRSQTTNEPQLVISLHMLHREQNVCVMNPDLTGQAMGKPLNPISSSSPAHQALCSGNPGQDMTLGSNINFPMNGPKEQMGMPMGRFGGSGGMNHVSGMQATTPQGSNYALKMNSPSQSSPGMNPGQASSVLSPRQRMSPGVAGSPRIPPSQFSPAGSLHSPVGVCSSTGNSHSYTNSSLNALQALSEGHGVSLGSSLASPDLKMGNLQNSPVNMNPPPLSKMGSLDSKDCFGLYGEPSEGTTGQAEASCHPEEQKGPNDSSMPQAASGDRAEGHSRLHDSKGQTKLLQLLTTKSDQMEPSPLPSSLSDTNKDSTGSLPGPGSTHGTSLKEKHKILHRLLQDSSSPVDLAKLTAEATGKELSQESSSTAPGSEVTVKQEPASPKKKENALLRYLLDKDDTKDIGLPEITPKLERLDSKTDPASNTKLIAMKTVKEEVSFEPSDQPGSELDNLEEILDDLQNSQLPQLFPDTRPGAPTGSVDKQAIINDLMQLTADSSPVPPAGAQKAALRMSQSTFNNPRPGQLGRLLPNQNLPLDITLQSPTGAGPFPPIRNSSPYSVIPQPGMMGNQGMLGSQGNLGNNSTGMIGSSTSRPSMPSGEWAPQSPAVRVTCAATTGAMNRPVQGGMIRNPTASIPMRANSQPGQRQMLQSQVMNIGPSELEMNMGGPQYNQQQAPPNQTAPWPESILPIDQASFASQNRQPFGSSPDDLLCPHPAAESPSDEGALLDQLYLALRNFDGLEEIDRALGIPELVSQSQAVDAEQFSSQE

**Q.** With CCc1ccc(C(=O)NN(C(=O)c2cc(C)cc(C)c2)C(C)(C)C)cc1 [RH 5992, tebufenozide] as the compound, how does the β-galactosidase activity [1] read?
**A.** 0.196

**Q.** What about the β-galactosidase activity (Dm EcR-B1) of the same compound?
**A.** 1.200

**Q.** And the β-galactosidase activity [2]?
**A.** 2.323

**Q.** And the β-galactosidase activity (Dm EcR + DmUSP)?
**A.** 1.953

**Q.** And the β-galactosidase activity [3]?
**A.** 2.537

**Q.** And the “transactivation of the reporter gene (in words)” value (Dm ΔN EcR + DmUSP; 10 μM, DmEcR with N-terminal deletion, DmUSP present or absent, no GRIP1)?
**A.** incapable of transactivating the reporter gene

**Q.** What about the β-galactosidase activity (Dm ΔN EcR + DmUSP; RH 5992 10 μM, yeast, Dm ΔN EcR + DmUSP, DMSO control 0.152) of the same compound?
**A.** 0.182

— patent US7037656B2, “Methods and compositions for identifying ligands for nuclear receptors” (priority 2000, dated 2006)
